Results as given in ChEMBL document CHEMBL1151415, “Plant anticancer agents. XXIV. Alkaloid constituents of Simaba multiflora” (1983).
Values after ≈ are worked out from the molar mass of the structure shown. Active and inactive are the calls of the source. No cut-off for these calls is given here.

Tested on: KB
Test: Cytotoxicity against human KB cells
Format: functional
Conditions: for EC50: read-out: ED50 (the source's name)

Question: `COn1c(=O)cc2c3ccccc3n3c(=O)ccc1c23` was tested. Which Activity did it give?
Answer: inactive

Question: Which Activity does the source give for `COn1c(=O)cc2c3cc(O)ccc3n3c(=O)ccc1c23` here?
Answer: inactive

Question: How did the EC50 turn out when `O=c1ccc2nccc3c4cc(O)ccc4n1c23` was run?
Answer: 2.2 µg/mL (≈ 9.31 µM)

Question: How did the EC50 turn out when `COc1ccc2c(c1)c1ccnc3ccc(=O)n2c31` was run?
Answer: 2.1 µg/mL (≈ 8.39 µM)

Question: `O=c1cc2c3ccccc3n3c(=O)ccc([nH]1)c23` was tested. Which Activity did it give?
Answer: inactive
